Source: article PMC9601927 (Foods, 2022)

Key:
[1] = ANC transmembrane transport across Caco-2 cell monolayer (Transwell, HPLC); format: in vitro ADME; settings: human, Caco-2
Procedure: (§1) In this work, we utilized and slightly modified a procedure from Zou et al. to perform ANC transport studies. Firstly, ANC commercial powder was pre-dissolved in ultra-pure water and phosphate-buffered solution (PBS, pH7.4) was used for FA-g-CS dissolving. Then, pre-warmed phosphate-buffered saline (PBS) was used to wash and equilibrate the Transwell. Subsequently, the transport buffer containing ANC was added to the basolateral (1.5 mL) or the apical (0.5 mL) side of the inserts, while the corresponding volume of transport buffer was added to the receiving container. Samples measuring 50 uL were taken after 1, 2, 3, and 4 h incubation, and the same amount of pre-warmed PBS was replenished immediately. The samples were treated with HCl and frozen until HPLC analysis. The ANC-absorption-enhancing studies with FA-g-CS across Caco-2 cells were conducted using a transport buffer containing FA-g-CS+ANC instead of ANC alone.
(§2) Transport efficiency (A→B (%)) was calculated according to the following formula: (concentrations of the compound at basolateral side overtime)/(concentrations of the compound at the apical side at zero hours) × 100. The apparent permeability coefficient (Papp) was defined as follows: Papp = (dQ/dt)(1/[AC0]); here, A represents the surface area of the Transwell, C0 represents the compound concentration added in the apical side, and the transport rate of the compound over time is denoted by dQ/dt.

[2] = tested on: Caco-2 cell monolayer; assay: as above; format: in vitro ADME; settings: for Transport Efficiency A→B (%) with FA-g-CS Co-Treatment: with 5 × 10^−5 mg/mL FA-g-CS
Procedure: as §1, §2

## OC[C@H]1O[C@@H](Oc2cc3c(O)cc(O)cc3[o+]c2-c2ccc(O)c(O)c2)[C@H](O)[C@@H](O)[C@@H]1O [ANC, Cyanidin-3-glucoside]
[1]; ANC 0.05 ×10^−3 mg/mL, 4 h
  Papp A→B at 4 h, 0.05 ×10^−3 mg/mL: 0.491 ± 0.058 ×10⁻⁶ cm/s
  Papp B→A at 4 h, 0.05 ×10^−3 mg/mL: 0.378 ± 0.048 ×10⁻⁶ cm/s
[1]; ANC 0.05 ×10^−3 mg/mL, 4 h, read-out: Papp (B→A)/ Papp (A→B)
  efflux ratio at 4 h, 0.05 ×10^−3 mg/mL: 0.77
[1]; ANC 0.10 ×10^−3 mg/mL, 4 h
  Papp A→B at 4 h, 0.1 ×10^−3 mg/mL: 0.961 ± 0.048 ×10⁻⁶ cm/s
  Papp B→A at 4 h, 0.1 ×10^−3 mg/mL: 0.719 ± 0.098 ×10⁻⁶ cm/s
[1]; ANC 0.10 ×10^−3 mg/mL, 4 h, read-out: Papp (B→A)/ Papp (A→B)
  efflux ratio at 4 h, 0.1 ×10^−3 mg/mL: 0.75
[1]; ANC 0.15 ×10^−3 mg/mL, 4 h
  Papp A→B at 4 h, 0.15 ×10^−3 mg/mL: 1.5 ± 0.523 ×10⁻⁶ cm/s
  Papp B→A at 4 h, 0.15 ×10^−3 mg/mL: 1.94 ± 0.908 ×10⁻⁶ cm/s
[1]; ANC 0.15 ×10^−3 mg/mL, 4 h, read-out: Papp (B→A)/ Papp (A→B)
  efflux ratio at 4 h, 0.15 ×10^−3 mg/mL: 1.29
[1]; ANC 0.20 ×10^−3 mg/mL, 4 h
  Papp A→B at 4 h, 0.2 ×10^−3 mg/mL: 1.12 ± 0.108 ×10⁻⁶ cm/s
  Papp B→A at 4 h, 0.2 ×10^−3 mg/mL: 1.48 ± 0.048 ×10⁻⁶ cm/s
[1]; ANC 0.20 ×10^−3 mg/mL, 4 h, read-out: Papp (B→A)/ Papp (A→B)
  efflux ratio at 4 h, 0.2 ×10^−3 mg/mL: 1.32
[1]; ANC alone, overall statement
  Papp at 4 h: < 1 ×10⁻⁶ cm/s
[2]; ANC 0.05 ×10^−3 mg/mL, 4 h
  Transport Efficiency A→B (%) with FA-g-CS Co-Treatment: 1%
  Transport Efficiency A→B (%) without FA-g-CS: 0.81%
[2]; ANC 0.10 ×10^−3 mg/mL, 4 h
  Transport Efficiency A→B (%) with FA-g-CS Co-Treatment: 2.1%
  Transport Efficiency A→B (%) without FA-g-CS: 1.15%
[2]; ANC 0.15 ×10^−3 mg/mL, 4 h
  Transport Efficiency A→B (%) with FA-g-CS Co-Treatment: 2.3%
  Transport Efficiency A→B (%) without FA-g-CS: 1.18%
[2]; ANC 0.20 ×10^−3 mg/mL, 4 h
  Transport Efficiency A→B (%) with FA-g-CS Co-Treatment: 1.65%
  Transport Efficiency A→B (%) without FA-g-CS: 0.96%
[2]; apical ANC 0.05 ×10^−3 mg/mL, in presence of 0.05 × 10^−3 mg/mL FA-g-CS, 1 h
  Concentrations of ANC at the Basolateral Side: 0.0003 ± 0.00001 b ×10^−3 mg/mL
[2]; apical ANC 0.05 ×10^−3 mg/mL, in presence of 0.05 × 10^−3 mg/mL FA-g-CS, 2 h
  Concentrations of ANC at the Basolateral Side: 0.0004 ± 0.00001 c ×10^−3 mg/mL
[2]; apical ANC 0.05 ×10^−3 mg/mL, in presence of 0.05 × 10^−3 mg/mL FA-g-CS, 3 h
  Concentrations of ANC at the Basolateral Side: 0.0004 ± 0.00001 c ×10^−3 mg/mL
[2]; apical ANC 0.05 ×10^−3 mg/mL, in presence of 0.05 × 10^−3 mg/mL FA-g-CS, 4 h
  Concentrations of ANC at the Basolateral Side: 0.0005 ± 0.00001 d ×10^−3 mg/mL
[2]; apical ANC 0.05 ×10^−3 mg/mL, without FA-g-CS co-treatment, 1 h
  Concentrations of ANC at the Basolateral Side: 0.0001 ± 0.00001 a ×10^−3 mg/mL
[2]; apical ANC 0.05 ×10^−3 mg/mL, without FA-g-CS co-treatment, 2 h
  Concentrations of ANC at the Basolateral Side: 0.0003 ± 0.00001 b ×10^−3 mg/mL
[2]; apical ANC 0.05 ×10^−3 mg/mL, without FA-g-CS co-treatment, 3 h
  Concentrations of ANC at the Basolateral Side: 0.0004 ± 0.00001 c ×10^−3 mg/mL
[2]; apical ANC 0.05 ×10^−3 mg/mL, without FA-g-CS co-treatment, 4 h
  Concentrations of ANC at the Basolateral Side: 0.0004 ± 0.00001 c ×10^−3 mg/mL
[2]; apical ANC 0.10 ×10^−3 mg/mL, in presence of 0.05 × 10^−3 mg/mL FA-g-CS, 1 h
  Concentrations of ANC at the Basolateral Side: 0.0010 ± 0.0001 bc ×10^−3 mg/mL
